Measured values published in the NIST ThermoML archive (doi:10.1016/j.fluid.2013.05.008).
± gives the expanded uncertainty stated by the source.

Legend:
[1] = Crystal; DTA
[2] = Molar enthalpy of transition or fusion; conditions: Crystal; DSC

In the case of `CCc1ccc(CCOc2ccc(CC3SC(=O)NC3=O)cc2)nc1.Cl` (configuration not stated), the Normal melting temperature [1] is reported as 195.62 ± 0.5 °C and the “Molar enthalpy of transition or fusion” value [2] is reported as 12 ± 0.335 kcal/mol.
